Measured values taken from patent US6420357B1, “Cytotoxic alkaloid derivatives including Asmarine A and B isolated from a sponge” (Instituto Biomar, S.A., priority 1997, dated 2002).

Experiments:
Assay type in all cases: cell-based
[1] = test system: P-388 (suspension culture of a lymphoid neoplasm from DBA/2 mouse); assay: in vitro cytotoxic assay, P-388 cells; settings: P388, 72 h, three days of incubation, approximate IC50 by growth vs control wells
Method: (§1) Cells were maintained in logarithmic phase of growth in Eagle's Minimum Essential Medium, with Earle's Balanced Salts, with 2.0 mM L-glutamine, with non-essential amino acids, without sodium bicarbonate (EMEM/neaa); supplemented with 10% Fetal Calf Serum (FCS), 10^−2 M sodium bicarbonate and 0,1 g/l penicillin-G+streptomycin sulfate.
(§2) A screening procedure has been carried out to determine and compare the antitumor activity of these compounds, using an adapted form of the method described by Bergeron et al. (Reference 3). The antitumor cells employed were P-388 (suspension culture of a lymphoid neoplasm from DBA/2 mouse), A-549 (monolayer culture of a human lung carcinoma), HT-29 (monolayer culture of a human colon carcinoma) and MEL-28 (monolayer culture of a human melanoma).
(§3) P-388 cells were seeded into 16 mm wells at 1×10^4 cells per well in 1 ml aliquots of MEM 5FCS containing the indicated concentration of drug. A separate set of cultures without drug was seeded as control growth to ensure that cells remained in exponential phase of growth. All determinations were carried out in duplicate. After three days of incubation at 37° C., 10% CO2 in a 98% humid atmosphere, an approximately IC50 was determined by comparing the growth in wells with drug to the growth in wells control.

[2] = test system: A-549 (monolayer culture of a human lung carcinoma); assay: in vitro cytotoxic assay, A-549 cells; settings: A549, 72 h, three days of incubation, Crystal Violet staining, approximate IC50
Method: as §1, §2
as §3, with “A-549, HT-29 and MEL-28” for “P-388”, “2×10^4” for “1×10^4”, “10FCS” for “5FCS”, “the wells were stained with 0.1% Crystal Violet. An” for “an”

[3] = test system: HT-29 (monolayer culture of a human colon carcinoma); assay: in vitro cytotoxic assay, HT-29 cells; settings: 72 h, three days of incubation, Crystal Violet staining, approximate IC50
Method: as §1, §2
as §3, with “A-549, HT-29 and MEL-28” for “P-388”, “2×10^4” for “1×10^4”, “10FCS” for “5FCS”, “the wells were stained with 0.1% Crystal Violet. An” for “an”

[4] = test system: MEL-28 (monolayer culture of a human melanoma); assay: in vitro cytotoxic assay, MEL-28 cells; settings: SK-MEL-28, 72 h, three days of incubation, Crystal Violet staining, approximate IC50
Method: as §1, §2
as §3, with “A-549, HT-29 and MEL-28” for “P-388”, “2×10^4” for “1×10^4”, “10FCS” for “5FCS”, “the wells were stained with 0.1% Crystal Violet. An” for “an”

SMILES | IC50 [1] [µM] | IC50 [2] [µM] | IC50 [3] [µM] | IC50 [4] [µM]
C=C1CCC[C@@H]2[C@@](C)(CC[C@@]3(C)CCn4cnc5ncnc(c54)N3O)[C@H](C)CC[C@@]12C [Asmarine A] | 1.18 | 1.18 | 1.18 | 1.18
C=C1CCC[C@H]2[C@@](C)(CC[C@@]3(C)CCn4cnc5ncnc(c54)N3O)[C@H](C)CC[C@@]12C [Asmarine B] | 0.24 | 0.12 | 0.12 | 0.24
